# Laboratory results taken from the OligoGym collection.
# HELM strings list units from the 5' end as sugar, base in round brackets, then linkage (d deoxyribose, r ribose, m 2'-O-methyl, p phosphodiester). Strings are as the collection lists them; they lack the last nucleoside at the 3' end of the tested compound. [moe] = 2'-O-(2-methoxyethyl) (MOE); [sp] = phosphorothioate linkage; [m5C] = 5-methylcytosine
# Target: UBE3A-ATS
# Assay: mouse, dose not given
# Details: ASO
row,Substance,3 h FOB score [score 0-7]
1,RNA1{[moe](A)[sp].[moe](A)[sp].[moe](G)[sp].[moe](G)[sp].[moe](G)[sp].d(T)[sp].d(A)[sp].d(A)[sp].d(T)[sp].d(A)[sp].d([m5C])[sp].d(G)[sp].d(G)[sp].d(A)[sp].d([m5C])[sp].[moe]([m5C])[sp].[moe](T)[sp].[moe]([m5C])[sp].[moe](A)}$$$$ (last 3' nucleoside missing),6.5
2,RNA1{[moe](A)[sp].[moe](A)p.[moe](A)p.[moe](A)p.[moe](T)p.d(A)[sp].d([m5C])[sp].d([m5C])[sp].d(A)[sp].d([m5C])[sp].d(A)[sp].d(A)[sp].d(A)[sp].d(G)[sp].d(A)[sp].[moe](T)p.[moe](A)p.[moe](G)[sp].[moe](G)}$$$$ (last 3' nucleoside missing),2.5
3,RNA1{[moe](A)[sp].[moe](A)p.[moe](A)p.[moe](A)p.[moe](T)p.d([m5C])[sp].d([m5C])[sp].d(A)[sp].d(T)[sp].d(T)[sp].d(T)[sp].d(G)[sp].d(T)[sp].d([m5C])[sp].d([m5C])[sp].[moe](A)p.[moe](G)p.[moe](T)[sp].[moe]([m5C])}$$$$ (last 3' nucleoside missing),2.3
4,RNA1{[moe](A)[sp].[moe](A)p.[moe](A)p.[moe](A)p.[moe]([m5C])p.d(G)[sp].d([m5C])[sp].d(A)[sp].d(A)[sp].d(T)[sp].d(G)[sp].d(T)[sp].d(A)[sp].d(T)[sp].d([m5C])[sp].[moe](A)p.[moe](G)p.[moe](G)[sp].[moe]([m5C])}$$$$ (last 3' nucleoside missing),0.7
5,RNA1{[moe](A)[sp].[moe](A)p.[moe](A)p.[moe](T)p.[moe]([m5C])p.d([m5C])[sp].d(A)[sp].d(T)[sp].d(T)[sp].d(T)[sp].d(G)[sp].d(T)[sp].d([m5C])[sp].d([m5C])[sp].d(A)[sp].[moe](G)p.[moe](T)p.[moe]([m5C])[sp].[moe](T)}$$$$ (last 3' nucleoside missing),4.2
6,RNA1{[moe](A)[sp].[moe](A)p.[moe](A)p.[moe]([m5C])p.[moe](G)p.[moe]([m5C])p.d(A)[sp].d(A)[sp].d(T)[sp].d(G)[sp].d(T)[sp].d(A)[sp].d(T)[sp].d([m5C])[sp].d(A)[sp].d(G)[sp].[moe](G)p.[moe]([m5C])[sp].[moe](A)}$$$$ (last 3' nucleoside missing),3
7,RNA1{[moe](A)[sp].[moe](A)p.[moe](A)p.[moe]([m5C])p.d(G)[sp].d([m5C])[sp].d(A)[sp].d(A)[sp].d(T)[sp].d(G)[sp].d(T)[sp].d(A)[sp].d(T)[sp].d([m5C])[sp].[moe](A)p.[moe](G)p.[moe](G)p.[moe]([m5C])[sp].[moe](A)}$$$$ (last 3' nucleoside missing),2
8,RNA1{[moe](A)[sp].[moe](A)p.[moe](G)p.[moe](T)p.[moe](A)p.d(T)[sp].d(A)[sp].d(G)[sp].d(A)[sp].d(T)[sp].d(G)[sp].d([m5C])[sp].d([m5C])[sp].d(T)[sp].d([m5C])[sp].[moe](T)p.[moe]([m5C])p.[moe]([m5C])[sp].[moe](T)}$$$$ (last 3' nucleoside missing),4
9,RNA1{[moe](A)[sp].[moe](A)p.[moe](G)p.[moe](T)p.[moe](G)p.d(G)[sp].d(A)[sp].d(T)[sp].d([m5C])[sp].d(T)[sp].d([m5C])[sp].d(T)[sp].d(T)[sp].d(G)[sp].d(G)[sp].[moe](G)p.[moe]([m5C])p.[moe](A)[sp].[moe](G)}$$$$ (last 3' nucleoside missing),4.8
10,RNA1{[moe](A)[sp].[moe](A)p.[moe](G)p.[moe](T)p.[moe]([m5C])p.d(A)[sp].d(T)[sp].d(T)[sp].d([m5C])[sp].d([m5C])[sp].d([m5C])[sp].d([m5C])[sp].d(A)[sp].d([m5C])[sp].d([m5C])[sp].[moe]([m5C])p.[moe](T)p.[moe](G)[sp].[moe](G)}$$$$ (last 3' nucleoside missing),1.8
11,RNA1{[moe](A)[sp].[moe](A)p.[moe]([m5C])p.[moe](A)p.[moe](A)p.d([m5C])[sp].d(G)[sp].d(G)[sp].d(T)[sp].d(T)[sp].d(G)[sp].d([m5C])[sp].d(A)[sp].d(G)[sp].d(G)[sp].[moe](G)p.[moe](A)p.[moe]([m5C])[sp].[moe](A)}$$$$ (last 3' nucleoside missing),6.8
12,RNA1{[moe](A)[sp].[moe](A)p.[moe]([m5C])p.[moe](G)p.[moe]([m5C])p.[moe](A)p.d(A)[sp].d(T)[sp].d(G)[sp].d(T)[sp].d(A)[sp].d(T)[sp].d([m5C])[sp].d(A)[sp].d(G)[sp].d(G)[sp].[moe]([m5C])p.[moe](A)[sp].[moe](A)}$$$$ (last 3' nucleoside missing),4.7
13,RNA1{[moe](A)[sp].[moe](A)p.[moe]([m5C])p.[moe](G)p.[moe]([m5C])p.d(A)[sp].d(A)[sp].d(T)[sp].d(G)[sp].d(T)[sp].d(A)[sp].d(T)[sp].d([m5C])[sp].d(A)[sp].d(G)[sp].[moe](G)p.[moe]([m5C])p.[moe](A)[sp].[moe](A)}$$$$ (last 3' nucleoside missing),1
14,RNA1{[moe](A)[sp].[moe](A)p.[moe]([m5C])p.[moe](G)p.d([m5C])[sp].d(A)[sp].d(A)[sp].d(T)[sp].d(G)[sp].d(T)[sp].d(A)[sp].d(T)[sp].d([m5C])[sp].d(A)[sp].[moe](G)p.[moe](G)p.[moe]([m5C])p.[moe](A)[sp].[moe](A)}$$$$ (last 3' nucleoside missing),2
15,RNA1{[moe](A)[sp].[moe](A)p.[moe]([m5C])p.[moe](T)p.[moe](G)p.d([m5C])[sp].d(T)[sp].d(T)[sp].d([m5C])[sp].d(A)[sp].d([m5C])[sp].d([m5C])[sp].d(A)[sp].d(T)[sp].d(T)[sp].[moe](T)p.[moe](T)p.[moe](G)[sp].[moe](A)}$$$$ (last 3' nucleoside missing),0
16,RNA1{[moe](A)[sp].[moe](A)p.[moe]([m5C])p.[moe](T)p.[moe](T)p.d([m5C])[sp].d(A)[sp].d(T)[sp].d([m5C])[sp].d(A)[sp].d(A)[sp].d(T)[sp].d(A)[sp].d(T)[sp].d(T)[sp].[moe](T)p.[moe]([m5C])p.[moe]([m5C])[sp].[moe]([m5C])}$$$$ (last 3' nucleoside missing),1
17,RNA1{[moe](A)[sp].[moe](G)p.[moe](A)p.[moe](G)p.[moe](A)p.d([m5C])[sp].d([m5C])[sp].d(T)[sp].d([m5C])[sp].d(A)[sp].d(A)[sp].d(G)[sp].d(A)[sp].d([m5C])[sp].d([m5C])[sp].[moe](T)p.[moe](A)p.[moe](T)[sp].[moe](A)}$$$$ (last 3' nucleoside missing),3.8
18,RNA1{[moe](A)[sp].[moe](G)p.[moe](A)p.[moe](G)p.[moe](G)p.d(A)[sp].d(T)[sp].d(T)[sp].d(T)[sp].d(A)[sp].d(G)[sp].d(A)[sp].d(G)[sp].d(T)[sp].d(T)[sp].[moe](A)p.[moe](A)p.[moe](A)[sp].[moe](A)}$$$$ (last 3' nucleoside missing),2.8
19,RNA1{[moe](A)[sp].[moe](G)p.[moe](A)p.[moe](G)p.[moe](G)p.d([m5C])[sp].d([m5C])[sp].d([m5C])[sp].d(T)[sp].d([m5C])[sp].d(T)[sp].d(T)[sp].d(G)[sp].d(T)[sp].d(T)[sp].[moe](T)p.[moe]([m5C])p.[moe](A)[sp].[moe](A)}$$$$ (last 3' nucleoside missing),1.8
20,RNA1{[moe](A)[sp].[moe](G)p.[moe](A)p.[moe](G)p.[moe](T)p.d(A)[sp].d(G)[sp].d(T)[sp].d([m5C])[sp].d(T)[sp].d(A)[sp].d(T)[sp].d(T)[sp].d(G)[sp].d(G)[sp].[moe](T)p.[moe](G)p.[moe](T)[sp].[moe](T)}$$$$ (last 3' nucleoside missing),3.8
21,RNA1{[moe](A)[sp].[moe](G)p.[moe](A)p.[moe](T)p.[moe](A)p.d([m5C])[sp].d(T)[sp].d([m5C])[sp].d(A)[sp].d([m5C])[sp].d(T)[sp].d([m5C])[sp].d(G)[sp].d([m5C])[sp].d(T)[sp].[moe](T)p.[moe](T)p.[moe](T)[sp].[moe]([m5C])}$$$$ (last 3' nucleoside missing),3.2
22,RNA1{[moe](A)[sp].[moe](G)p.[moe](A)p.[moe]([m5C])p.[moe](T)p.d(A)[sp].d(T)[sp].d([m5C])[sp].d([m5C])[sp].d(T)[sp].d(G)[sp].d(G)[sp].d(T)[sp].d(A)[sp].d(T)[sp].[moe](G)p.[moe](A)p.[moe]([m5C])[sp].[moe](T)}$$$$ (last 3' nucleoside missing),6
23,RNA1{[moe](A)[sp].[moe](G)p.[moe](A)p.[moe]([m5C])p.[moe]([m5C])p.d(T)[sp].d(A)[sp].d(T)[sp].d(A)[sp].d(G)[sp].d(G)[sp].d(A)[sp].d([m5C])[sp].d([m5C])[sp].d(T)[sp].[moe]([m5C])p.[moe](A)p.[moe](G)[sp].[moe](G)}$$$$ (last 3' nucleoside missing),4
24,RNA1{[moe](A)[sp].[moe](G)p.[moe](G)p.[moe](A)p.[moe](T)p.d(T)[sp].d(A)[sp].d(A)[sp].d(A)[sp].d(A)[sp].d(G)[sp].d(T)[sp].d(T)[sp].d(G)[sp].d(A)[sp].[moe](A)p.[moe](A)p.[moe]([m5C])[sp].[moe](A)}$$$$ (last 3' nucleoside missing),4
25,RNA1{[moe](A)[sp].[moe](G)p.[moe](G)p.[moe](A)p.[moe](T)p.d(T)[sp].d([m5C])[sp].d(A)[sp].d(A)[sp].d(T)[sp].d(A)[sp].d(G)[sp].d(T)[sp].d(G)[sp].d(T)[sp].[moe](A)p.[moe](G)p.[moe](G)[sp].[moe](T)}$$$$ (last 3' nucleoside missing),6.7
26,RNA1{[moe](A)[sp].[moe](G)p.[moe](G)p.[moe](A)p.[moe]([m5C])p.d([m5C])[sp].d(T)[sp].d([m5C])[sp].d(A)[sp].d(G)[sp].d(G)[sp].d(A)[sp].d(G)[sp].d(A)[sp].d(T)[sp].[moe](T)p.[moe](G)p.[moe](T)[sp].[moe](A)}$$$$ (last 3' nucleoside missing),2.3
